The source of these data is US8669251B2, “8-fluorophthalazin-1(2H)-one compounds” (Genentech, Inc., priority 2011, dated 2014).

The assay concerns production of CD69 by B lymphocytes in human whole blood. The assay is described as follows: CD69 Whole Blood Assay (CD69 Hu Blood FACS). In kind it is cell-based. The following applies: human whole blood activated with goat F(ab')2 anti-human IgM, 20 hours; CD69 on CD20 positive cells by FACS; Table 2. From the text:
A CD69 Whole Blood Assay can be conducted on Formula I compounds to determine the ability of compounds to inhibit the production of CD69 by B lymphocytes in human whole blood activated by crosslinking surface IgM with goat F(ab′)2 anti-human IgM (Example 907). CD69 is a type II C-type lectin involved in lymphocyte migration and cytokine secretion. CD69 expression represents one of the earliest available indicators of leukocyte activation and its rapid induction occurs through transcriptional activation (Vazquez et al (2009) Jour. of Immunology Published Oct. 19, 2009, doi:10.4049/jimmunol.0900839). Concentration-dependent inhibition of antigen receptor stimulation by selective Btk inhibitors induces cell surface expression of the lymphocyte activation marker CD69 (Honigberg et al (2010) Proc. Natl. Acad. Sci. 107(29):13075-13080). Thus, CD69 inhibition by selective Btk inhibitors may be correlated with therapeutic efficacy of certain B-cell disorders.
Human blood is obtained from healthy volunteers, with the following restrictions: 1 week drug-free, non-smokers. Blood (approximately 20 mls to test 8 compounds) is collected by venipuncture into Vacutainer® (Becton, Dickinson and Co.) tubes with sodium heparin.
Solutions of Formula I and II compounds at 10 mM in DMSO are diluted 1:10 in 100% DMSO, then are diluted by three-fold serial dilutions in 100% DMSO for a ten point dose-response curve. The compounds are further diluted 1:10 in PBS and then an aliquot of 5.5 μl of each compound is added in duplicate to a 2 ml 96-well plate; 5.5 μl of 10% DMSO in PBS is added as control and no-stimulus wells. Human whole blood —HWB (100 μl) is added to each well. After mixing the plates are incubated at 37° C., 5% CO2, 100% humidity for 30 minutes. Goat F(ab′)2 anti-human IgM (10 μl of a 500 μg/ml solution, 50 μg/ml final) is added to each well (except the no-stimulus wells) with mixing and the plates are incubated for an additional 20 hours. At the end of the 20 hour incubation, samples are incubated with fluorescent labeled antibodies for 30 minutes, at 37° C., 5% CO2, 100% humidity. Include induced control, unstained and single stains for compensation adjustments and initial voltage settings. Samples are then lysed with PharM Lyse™ (BD Biosciences Pharmingen) according to the manufacturer's instructions. Samples are then transferred to a 96 well plate suitable to be run on the BD Biosciences HTS 96 well system on the LSRII machine. Data acquired and Mean Fluorescence Intensity values were obtained using BD Biosciences DIVA Software. Results are initially analyzed by FACS analysis software (Flow Jo). […] The inhibitory concentration (IC50, IC70, IC90) values are calculated by Prism version 5, using a nonlinear regression curve fit.
On the technique in general: In flow cytometry, cells or beads pass a laser one at a time.
`Cc1cc(Nc2cc(-c3ccnc(-n4ncc5cc(C(C)(C)C)cc(F)c5c4=O)c3CO)cn(C)c2=O)nn1C` [Compound 119, 6-tert-butyl-2-[4-[5-[(1,5-dimethylpyrazol-3-yl)amino]-1-methyl-6-oxo-3-pyridyl]-3-(hydroxymethyl)-2-pyridyl]-8-fluoro-phthalazin-1-one] returned a CD69 Hu Blood FACS (IC70) of 24.7 nM.

In the case of `Cc1cnc(Nc2cc(-c3ccnc(-n4ncc5cc(C(C)(C)C)cc(F)c5c4=O)c3CO)cn(C)c2=O)s1` [Compound 120, 6-tert-butyl-8-fluoro-2-[3-(hydroxymethyl)-4-[1-methyl-5-[(5-methylthiazol-2-yl)amino]-6-oxo-3-pyridyl]-2-pyridyl]phthalazin-1-one], the CD69 Hu Blood FACS (IC70) turned out to be 139 nM.

On to `Cc1cc(Nc2cc(-c3ccnc(-n4ncc5cc(C(C)(C)C)cc(F)c5c4=O)c3CO)cn(C)c2=O)n[nH]1` [Compound 121, 6-tert-butyl-8-fluoro-2-[3-(hydroxymethyl)-4-[1-methyl-5-[(5-methyl-1H-pyrazol-3-yl)amino]-6-oxo-3-pyridyl]-2-pyridyl]phthalazin-1-one], for which the CD69 Hu Blood FACS (IC70) was 79.3 nM.

`CCc1cc(Nc2cc(-c3ccnc(-n4ncc5cc(C(C)(C)C)cc(F)c5c4=O)c3CO)cn(C)c2=O)nn1C` [Compound 122, 6-tert-butyl-2-[4-[5-[(5-ethyl-1-methyl-pyrazol-3-yl)amino]-1-methyl-6-oxo-3-pyridyl]-3-(hydroxymethyl)-2-pyridyl]-8-fluoro-phthalazin-1-one] yielded a CD69 Hu Blood FACS (IC70) of 37.5 nM.

Take `CCn1cc(Nc2nc(-c3ccnc(-n4ncc5cc(C(C)(C)C)cc(F)c5c4=O)c3CO)cn(C)c2=O)cn1` [Compound 123, 6-tert-butyl-2-[4-[6-[(1-ethylpyrazol-4-yl)amino]-4-methyl-5-oxo-pyrazin-2-yl]-3-(hydroxymethyl)-2-pyridyl]-8-fluoro-phthalazin-1-one]: the CD69 Hu Blood FACS (IC70) is 156 nM.

`CC(=O)N1CCn2nc(Nc3cc(-c4ccnc(-n5ncc6cc(C(C)(C)C)cc(F)c6c5=O)c4CO)cn(C)c3=O)cc2C1` [Compound 124, 2-[4-[5-[(5-acetyl-6,7-dihydro-4H-pyrazolo[1,5-a]pyrazin-2-yl)amino]-1-methyl-6-oxo-3-pyridyl]-3-(hydroxymethyl)-2-pyridyl]-6-tert-butyl-8-fluoro-phthalazin-1-one] returned a CD69 Hu Blood FACS (IC70) of 41.5 nM.

In the case of `Cc1cnc(Nc2cc(-c3ccnc(-n4ncc5cc(C(C)(C)C)cc(F)c5c4=O)c3CO)cn(C)c2=O)o1` [Compound 125, 6-tert-butyl-8-fluoro-2-[3-(hydroxymethyl)-4-[1-methyl-5-[(5-methyloxazol-2-yl)amino]-6-oxo-3-pyridyl]-2-pyridyl]phthalazin-1-one], the CD69 Hu Blood FACS (IC70) is 521 nM.

In turn, `Cn1nc(Nc2cc(-c3ccnc(-n4ncc5cc(C(C)(C)C)cc(F)c5c4=O)c3CO)cn(C)c2=O)cc1C1CC1` [Compound 126, 6-tert-butyl-2-[4-[5-[(5-cyclopropyl-1-methyl-pyrazol-3-yl)amino]-1-methyl-6-oxo-3-pyridyl]-3-(hydroxymethyl)-2-pyridyl]-8-fluoro-phthalazin-1-one] came in with a CD69 Hu Blood FACS (IC70) of 44.5 nM.

Regarding `Cc1cc(Nc2cc(-c3ccnc(-n4ncc5cc(C(C)(C)C)cc(F)c5c4=O)c3CO)nn(C)c2=O)nn1C` [Compound 127, 6-tert-butyl-2-[4-[5-[(1,5-dimethylpyrazol-3-yl)amino]-1-methyl-6-oxo-pyridazin-3-yl]-3-(hydroxymethyl)-2-pyridyl]-8-fluoro-phthalazin-1-one], the CD69 Hu Blood FACS (IC70) was determined as 115 nM.

For `CN1CCn2nc(Nc3cc(-c4ccnc(-n5ncc6cc(C(C)(C)C)cc(F)c6c5=O)c4CO)cn(C)c3=O)cc2C1` [Compound 128, 6-tert-butyl-8-fluoro-2-[3-(hydroxymethyl)-4-[1-methyl-5-[(5-methyl-6,7-dihydro-4H-pyrazolo[1,5-a]pyrazin-2-yl)amino]-6-oxo-3-pyridyl]-2-pyridyl]phthalazin-1-one], the CD69 Hu Blood FACS (IC70) amounted to 27.2 nM.

As for `Cc1cc(Nc2cc(-c3ccnc(-n4ncc5cc(C(C)(C)C)cc(F)c5c4=O)c3CO)cn(C)c2=O)no1` [Compound 129, 6-tert-butyl-8-fluoro-2-[3-(hydroxymethyl)-4-[1-methyl-5-[(5-methylisoxazol-3-yl)amino]-6-oxo-3-pyridyl]-2-pyridyl]phthalazin-1-one], the CD69 Hu Blood FACS (IC70) amounted to 48.8 nM.

Compound `Cn1cnc(Nc2cc(-c3ccnc(-n4ncc5cc(C(C)(C)C)cc(F)c5c4=O)c3CO)cn(C)c2=O)c1` [Compound 130, 6-tert-butyl-8-fluoro-2-[3-(hydroxymethyl)-4-[1-methyl-5-[(1-methylimidazol-4-yl)amino]-6-oxo-3-pyridyl]-2-pyridyl]phthalazin-1-one] yielded a CD69 Hu Blood FACS (IC70) of 152 nM.

On to `Cn1cc(-c2ccnc(-n3ncc4cc(C(C)(C)C)cc(F)c4c3=O)c2CO)cc(Nc2cc3n(n2)CCOC3)c1=O` [Compound 131, 6-tert-butyl-2-[4-[5-(6,7-dihydro-4H-pyrazolo[5,1-c][1,4]oxazin-2-ylamino)-1-methyl-6-oxo-3-pyridyl]-3-(hydroxymethyl)-2-pyridyl]-8-fluoro-phthalazin-1-one], for which the CD69 Hu Blood FACS (IC70) is 17.1 nM.

In turn, `C[C@@H]1COCCN1C(=O)c1ccc(Nc2cc(-c3ccnc(-n4ncc5cc(C(C)(C)C)cc(F)c5c4=O)c3CO)cn(C)c2=O)nc1` [Compound 132, 6-tert-butyl-8-fluoro-2-[3-(hydroxymethyl)-4-[1-methyl-5-[[5-[(3R)-3-methylmorpholine-4-carbonyl]-2-pyridyl]amino]-6-oxo-3-pyridyl]-2-pyridyl]phthalazin-1-one] registered a CD69 Hu Blood FACS (IC70) of 14 nM.

The compound `COCCN1CCn2nc(Nc3cc(-c4ccnc(-n5ncc6cc(C(C)(C)C)cc(F)c6c5=O)c4CO)cn(C)c3=O)cc2C1` [Compound 133, 6-tert-butyl-8-fluoro-2-[3-(hydroxymethyl)-4-[5-[[5-(2-methoxyethyl)-6,7-dihydro-4H-pyrazolo[1,5-a]pyrazin-2-yl]amino]-1-methyl-6-oxo-3-pyridyl]-2-pyridyl]phthalazin-1-one] registered a CD69 Hu Blood FACS (IC70) of 14.5 nM.

On to `Cn1cc(-c2ccnc(-n3ncc4cc(C(C)(C)C)cc(F)c4c3=O)c2CO)cc(Nc2cc3n(n2)CCN(CC(F)(F)F)C3)c1=O` [Compound 134, 6-tert-butyl-8-fluoro-2-[3-(hydroxymethyl)-4-[1-methyl-6-oxo-5-[[5-(2,2,2-trifluoroethyl)-6,7-dihydro-4H-pyrazolo[1,5-a]pyrazin-2-yl]amino]-3-pyridyl]-2-pyridyl]phthalazin-1-one], for which the CD69 Hu Blood FACS (IC70) stood at 21.6 nM.

For the compound `Cn1cc(-c2ccnc(-n3ncc4cc(C(C)(C)C)cc(F)c4c3=O)c2CO)cc(Nc2cc3n(n2)CCN(CC(F)F)C3)c1=O` [Compound 135, 6-tert-butyl-2-[4-[5-[[5-(2,2-difluoroethyl)-6,7-dihydro-4H-pyrazolo[1,5-a]pyrazin-2-yl]amino]-1-methyl-6-oxo-3-pyridyl]-3-(hydroxymethyl)-2-pyridyl]-8-fluoro-phthalazin-1-one], the CD69 Hu Blood FACS (IC70) turned out to be 20 nM.

In turn, `C[C@H]1COCCN1C(=O)c1ccc(Nc2cc(-c3ccnc(-n4ncc5cc(C(C)(C)C)cc(F)c5c4=O)c3CO)cn(C)c2=O)nc1` [Compound 136, 6-tert-butyl-8-fluoro-2-[3-(hydroxymethyl)-4-[1-methyl-5-[[5-[(3S)-3-methylmorpholine-4-carbonyl]-2-pyridyl]amino]-6-oxo-3-pyridyl]-2-pyridyl]phthalazin-1-one] showed a CD69 Hu Blood FACS (IC70) of 14.5 nM.

`C[C@H]1CN(C2COC2)CCN1c1ccc(Nc2cc(-c3ccnc(-n4ncc5cc(C(C)(C)C)cc(F)c5c4=O)c3CO)c[nH]c2=O)nc1` [Compound 138, 6-tert-butyl-8-fluoro-2-[3-(hydroxymethyl)-4-[5-[[5-[(2S)-2-methyl-4-(oxetan-3-yl)piperazin-1-yl]-2-pyridyl]amino]-6-oxo-1H-pyridin-3-yl]-2-pyridyl]phthalazin-1-one] displayed a CD69 Hu Blood FACS (IC70) of 12.4 nM.

The compound `Cn1cc(-c2ccnc(-n3ncc4cc(C(C)(C)C)cc(F)c4c3=O)c2CO)cc(Nc2cc3n(n2)CC(C)(C)OC3)c1=O` [Compound 139, 6-tert-butyl-2-[4-[5-[(6,6-dimethyl-4,7-dihydropyrazolo[5,1-c][1,4]oxazin-2-yl)amino]-1-methyl-6-oxo-3-pyridyl]-3-(hydroxymethyl)-2-pyridyl]-8-fluoro-phthalazin-1-one] returned a CD69 Hu Blood FACS (IC70) of 61.6 nM.
